Measurements as given in PMC5038265 (Antimicrobial Agents and Chemotherapy, 2016).
In brackets after ≈: the same amount, converted by molar mass. Where two headings read alike, the source gives them in different places.

What was measured:
M. tuberculosis LeuRS = M. tuberculosis LeuRS (Mycobacterium tuberculosis, UniProt P9WFV1); experiment: biochemical; parameters: species or system M. tuberculosis H37Rv
SDHA in HepG2 cells = experiment: Mitochondrial protein synthesis assay, SDHA level; format: cell-based; conditions: Homo sapiens, 168 h; HepG2, 7 days; read-out: Mean EC50 ± SD SDHA
Protocol: (§1) The human liver carcinoma-derived HepG2 cell line was obtained from the ATCC (ATCC HB-8065). HepG2 cells were grown in Dulbecco's modified Eagle's medium containing 10% fetal calf serum, 1 mM sodium pyruvate, 0.1 mM essential amino acids, and 50 U/ml penicillin-streptomycin at 37°C with 5% CO2. HepG2 cells were seeded into 96-well plates at 3,000 cells/200 μl/well in cell culture medium. Cells were then grown in the presence of the compounds at 37°C in 10% CO2 for 7 days in at least duplicate concentrations, with the medium and compounds being replaced on the fourth day. After 7 days, the levels of SDHA (subunit A of the succinate dehydrogenase complex) and COX1 (cytochrome c oxidase) were determined by using the MitoSciences In-Cell enzyme-linked immunosorbent assay (ELISA) kit. Janus green staining was used to determined cell viability after 7 days (In-Cell ELISA kit, catalog number MS643).

M. tuberculosis H37Rv [1] = format: in vivo, C57BL/6J mice
M. tuberculosis H37Rv [2] = test system: M. tuberculosis H37Rv; parameters: species or system C57BL/6J mice; conditions: mouse, in vivo
M. tuberculosis H37Rv [3] = experiment: MIC for M. tuberculosis H37Rv (resazurin/alamarBlue); format: cell-based, Mycobacterium tuberculosis; conditions: for MIC: Mycobacterium tuberculosis, H37RV, read-out: MIC M.tb H37Rv
HepG2 cells = experiment: HepG2 cell viability (Janus green staining); format: cell-based; conditions: Homo sapiens, 168 h, HepG2, 7 days, read-out: Mean EC50 ± SD Cell viability
Protocol: as §1

M. tuberculosis H37Rv [4] = experiment: Time-kill assay; format: cell-based
COX1 in HepG2 cells = experiment: Mitochondrial protein synthesis assay, COX1 level; format: cell-based; conditions: Homo sapiens, 168 h; HepG2, 7 days; read-out: Mean EC50 ± SD COX1
Protocol: as §1

in vivo = conditions: 30 mg/kg; for α-t1/2 % AUC / β-t1/2 % AUC: i.v.; for AUC(0-inf) / Cmax / MRT / Vd / clearance / half-life / AUC(0-t) / Tmax / bioavailability: in vivo
Protocol: Mouse pharmacokinetic studies were conducted by using female CD-1 mice for compounds 1, 11, and 12, while BALB/c mice were used for compound 13. Mouse body weights were 19 to 28 g, and on the morning of dosing, mice were split randomly into 3 dosing groups to receive the test article by either intravenous (i.v.) tail vein injection or oral (p.o.) gavage. After dosing, blood samples were collected via cardiac puncture at specific time points (n = 3 mice/time point) through 24 h (K2EDTA as an anticoagulant) and processed for plasma. Antibiotic concentrations in the plasma samples were analyzed by liquid chromatography-tandem mass spectrometry (LC-MS/MS). The LC-MS/MS analysis was conducted by using analyte/internal standard peak area methods. The internal standard was AN3365 ([21]), and the instrument used was an API4000 QTRAP instrument (AB Sciex). The limit of quantitation (LOQ) was 1 or 2 ng/ml. Pharmacokinetic analyses of the mean plasma concentration-time profiles were performed by using WinNonlin Pro version 5.2. A compartmental model was used for the data for i.v. dosing, and a noncompartmental model was used for the data for p.o. dosing. […] Compounds 1 and 13 were formulated in saline (0.9% [wt/vol] NaCl) at 7.5 mg/ml, and the pH was adjusted to >5 by the addition of NaOH. Compound 11 was formulated to 6.5 mg/ml in water-dimethylacetamide-ethanol (EtOH) (76:19:5), and the pH was adjusted to >5 by the addition of NaOH. Compound 12 was formulated to 7.5 mg/ml in PEG 300-propylene glycol (PG)-water (55:25:20), and the pH was adjusted to >5 by the addition of NaOH.

M. tuberculosis H37Rv [5] = experiment: microbe, parasite or virus in culture; format: cell-based; conditions: Mycobacterium tuberculosis, read-out: MIC on Middlebrook 7H10 agar
[6] = target: M. tuberculosis LeuRS editing domain (Mycobacterium tuberculosis, UniProt P9WFV1); experiment: biochemical; format: binding
M. tuberculosis LeuRS editing domain, sequence (P9WFV1 309-513): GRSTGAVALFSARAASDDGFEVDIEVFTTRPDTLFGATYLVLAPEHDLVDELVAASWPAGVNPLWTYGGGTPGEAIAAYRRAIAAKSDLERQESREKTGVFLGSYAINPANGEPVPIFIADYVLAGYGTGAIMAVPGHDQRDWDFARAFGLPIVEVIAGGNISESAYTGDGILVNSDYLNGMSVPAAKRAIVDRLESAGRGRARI

in vitro = in vitro ADME; conditions: mouse plasma, 1 and 10 µg/ml, ultrafiltration; read-out: Mouse PPB (converted)
Protocol: Compounds were added to 1.5-ml aliquots of mouse plasma at concentrations of 1 and 10 µg/ml and then incubated in a shaking water bath at 37°C for 15 min. Both samples were treated similarly, and a 0.5-ml aliquot was removed from each tube and added to the filter reservoir of Microcon centrifugal filter devices (Ultracel YM-30 with a molecular mass cutoff of 30 kDa). The devices were centrifuged at 1,000 × g for 10 min, and 100 μl of the filtrate was transferred to a 96-well plate and diluted 5-fold. Ten-microliter volumes of the samples were injected and analyzed with the LC-MS/MS system. All samples were analyzed in duplicate. Quantitation was based on the peak area ratio of the analyte over the internal standard, and all integrations were performed with peak areas by using Analyst version 1.4.1 (Applied Biosystems, Foster City, CA, USA). Plasma protein binding was calculated based on the following equation: Plasma Protein Binding (%)=(PeakAreaPlasma UltrafilrateSpiked−PeakAreaPlasmaFiltrate)/PeakAreaPlasma UltrafiltrateSpiked×100

[7] = test system: M. smegmatis ATCC 700084 and leuS resistant mutants; experiment: Liquid culture MIC for compound 1-resistant M. smegmatis mutants; format: cell-based, Mycobacterium smegmatis; conditions: Mycolicibacterium smegmatis
Description: Mutants resistant to compound 1 were isolated on Middlebrook 7H10 medium plus 10% (vol/vol) oleic albumin dextrose catalase (OADC) supplement (Becton Dickinson) containing compound 1 at 4× MIC. Resistance was confirmed by measuring the mutant MIC values essentially as described previously by Collins and Franzblau ([17]).

Vero cells = experiment: In vitro cytotoxicity assay (MTT); format: cell-based, African green monkey; conditions: Chlorocebus sabaeus, 72 h
Protocol: Vero epithelial cells (from African green monkey; ATCC CCL-81) were cultured in Dulbecco's modified Eagle's medium (DMEM) supplemented with 10% fetal bovine serum (FBS) and maintained in a humidified incubator (37°C in 5% CO2). Cells were dislodged with a cell scraper, collected by centrifugation, resuspended in fresh medium at ∼10^6 cells/ml, dispensed into 96-well microtiter plates ([…]), and incubated for 18 h at 37°C. Twofold serial dilutions of test compounds in DMEM with FBS were subsequently added, and cells were incubated for another 72 h. In triplicate studies, the cytopathic effects of compounds were evaluated colorimetrically by using the 3-(4,5-dimethyl-2-thiazolyl)-2,5-diphenyl-2H-tetrazolium bromide (MTT) cell proliferation assay (ATCC). IC50 data were obtained from dose-response curves plotted by using GraphPad Prism 5.

[8] = mouse, po, Terminal t1/2, mouse

M. tuberculosis LeuRS, sequence (P9WFV1 whole entry): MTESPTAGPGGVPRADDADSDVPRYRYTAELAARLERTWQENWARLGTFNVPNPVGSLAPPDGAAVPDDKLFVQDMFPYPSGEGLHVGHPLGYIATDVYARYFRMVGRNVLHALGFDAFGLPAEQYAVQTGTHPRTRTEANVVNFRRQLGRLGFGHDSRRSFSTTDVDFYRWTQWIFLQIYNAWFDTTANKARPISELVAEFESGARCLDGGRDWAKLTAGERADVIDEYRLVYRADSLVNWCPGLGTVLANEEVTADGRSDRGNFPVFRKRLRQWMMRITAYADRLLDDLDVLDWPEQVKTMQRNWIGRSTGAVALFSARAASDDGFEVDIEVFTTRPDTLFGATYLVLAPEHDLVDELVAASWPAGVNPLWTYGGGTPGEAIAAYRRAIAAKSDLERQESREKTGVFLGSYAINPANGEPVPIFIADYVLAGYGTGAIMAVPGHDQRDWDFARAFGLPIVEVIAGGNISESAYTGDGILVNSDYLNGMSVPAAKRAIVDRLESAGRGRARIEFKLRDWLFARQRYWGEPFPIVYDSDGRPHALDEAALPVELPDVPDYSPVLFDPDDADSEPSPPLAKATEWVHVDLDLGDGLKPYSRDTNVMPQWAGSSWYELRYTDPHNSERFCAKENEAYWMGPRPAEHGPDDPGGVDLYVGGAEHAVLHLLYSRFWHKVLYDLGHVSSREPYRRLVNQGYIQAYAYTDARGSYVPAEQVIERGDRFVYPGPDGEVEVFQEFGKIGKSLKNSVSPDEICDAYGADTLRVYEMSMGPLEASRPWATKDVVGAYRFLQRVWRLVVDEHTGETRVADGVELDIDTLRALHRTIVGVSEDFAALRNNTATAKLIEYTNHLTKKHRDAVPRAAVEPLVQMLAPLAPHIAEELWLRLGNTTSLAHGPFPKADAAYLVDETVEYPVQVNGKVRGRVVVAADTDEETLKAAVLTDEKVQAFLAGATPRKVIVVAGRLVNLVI

Row | Compound | IC50 (M. tuberculosis LeuRS) | EC50 (SDHA in HepG2 cells) | MIC values used in kill kinetics experiment (M. tuberculosis H37Rv [3]; M. tuberculosis H37Rv, Fig. 6) | MIC (M. tuberculosis H37Rv [3]) | EC50 (HepG2 cells) | EC50 (COX1 in HepG2 cells) | α-t1/2 % AUC (in vivo; mouse) | β-t1/2 % AUC (in vivo; mouse) | AUC(0-inf) (in vivo; mouse, iv) | Cmax (in vivo; mouse, iv) | MRT (in vivo; mouse, iv) | Vd (in vivo; mouse, iv) | clearance (in vivo; mouse, iv) | half-life (in vivo; mouse, iv, α-t1/2, mouse) | half-life (in vivo; mouse, iv, β-t1/2, mouse) | AUC(0-t) (in vivo; mouse, po) | Cmax (in vivo; mouse, po) | Tmax (in vivo; mouse, po) | bioavailability (in vivo; mouse, po) | half-life (in vivo; [8]) | other results
1 | CCOc1ccc(Br)c2c1B(O)O[C@@H]2CN [Compound 14] | 0.08 µM | 21.5 ± 6.4 µM | 0.013 µg/mL (≈ 0.0455 µM) | 0.02 µg/mL (≈ 0.0699 µM) | 106 ± 37.5 µM | > 150 µM | 5 % AUC | 95 % AUC | 43700 ng·h/mL | 17100 ng/mL | 4.7 h | 3.22 L/kg | 11.4 mL/min/kg | 0.05 h | 3.4 h | 57600 ng·h/mL | 6300 ng/mL | 0.5 h | 100% | 3.6 h | reduction in CFU (M. tuberculosis H37Rv [1]; 30 mg/kg QD, 8 weeks, lungs): 2.4 log10; efficacy in murine model of acute TB infection (M. tuberculosis H37Rv [2]): more active at lower doses than linezolid; in vitro kill kinetics profile (M. tuberculosis H37Rv [4]): very similar to that of the bacteriostatic protein synthesis inhibitor linezolid; MIC (M. tuberculosis H37Rv [5]): 0.2 µg/mL (≈ 0.699 µM)
2 | CCOc1ccc(Cl)c2c1B(O)O[C@@H]2CN [Compound 13] | 0.06 µM | 20.5 ± 2.1 µM |  | 0.02 µg/mL (≈ 0.0828 µM) | 80 ± 5.7 µM | > 150 µM | 2 % AUC | 98 % AUC | 51600 ng·h/mL | 13600 ng/mL | 5.4 h | 3.14 L/kg | 9.7 mL/min/kg | 0.1 h | 3.83 h | 47500 ng·h/mL | 6400 ng/mL | 0.25 h | 92% | 3.1 h | Kd [6]: 0.075 µM; No. of sites [6]: 1.19; ΔGap [6]: -9.7 kcal/mol; ΔHap [6]: -4.2 kcal/mol; −TΔSap [6]: -5.5 kcal/mol; fraction unbound (in vitro): 0.77
3 | CCOc1cccc2c1B(O)OC2CN (stereo not drawn) [Compound 1] |  |  |  | 0.26 µg/mL (≈ 1.26 µM) |  |  |  |  |  |  |  |  |  |  |  |  |  |  |  |  | MIC ([7]; ATCC700084, M. smegmatis ATCC 700084, liquid culture): 1 µg/mL (≈ 4.83 µM); MIC ([7]; ATCC700084, M. smegmatis RM1 leuS Δ421–462, liquid culture): > 256 µg/mL; IC50 (M. tuberculosis LeuRS; read-out: IC50 M.tb LeuRS): 0.28 µM; EC50 (Vero cells): > 50 µM; AUC(0-t) (in vivo; CD-1, mouse, po): 15000 ng·h/mL; Cmax (in vivo; CD-1, mouse, po): 4330 ng/mL; bioavailability (in vivo; CD-1, mouse, po): 55%
4 | CC(=O)NC[C@H]1CN(c2ccc(N3CCOCC3)c(F)c2)C(=O)O1 [Linezolid, linezolid] |  | > 150 µM |  |  | > 150 µM | 27.3 ± 10.8 µM |  |  |  |  |  |  |  |  |  |  |  |  |  |  | reduction in CFU (M. tuberculosis H37Rv [1]; mouse, in vivo): 2.6 log10; MIC values used in kill kinetics experiment (M. tuberculosis H37Rv [3]): 0.6 µg/mL (≈ 1.78 µM)
5 | CCOc1ccc(F)c2c1B(O)O[C@@H]2CN [Compound 12] |  | 39.5 ± 9.2 µM |  | 0.05 µg/mL (≈ 0.222 µM) | 23 ± 1.4 µM | > 150 µM | 7 % AUC | 93 % AUC | 26800 ng·h/mL | 13700 ng/mL | 3.4 h | 3.81 L/kg | 18.6 mL/min/kg | 0.11 h | 2.53 h | 23800 ng·h/mL | 5000 ng/mL | 1 h | 89% | 2.7 h | IC50 (M. tuberculosis LeuRS; read-out: IC50 M.tb LeuRS): 0.08 µM; fraction unbound (in vitro): 0.84
6 | COc1c(N2C[C@@H]3CCCN[C@@H]3C2)c(F)cc2c(=O)c(C(=O)O)cn(C3CC3)c12 [Moxifloxacin, moxifloxacin, reference compound] |  |  | 0.06 µg/mL (≈ 0.149 µM) |  |  |  |  |  |  |  |  |  |  |  |  |  |  |  |  |  | MIC (M. tuberculosis H37Rv [5]): 0.08 µg/mL (≈ 0.199 µM)
